Data taken from patent US9746463B2 (THE TRUSTEES OF COLUMBIA UNIVERSITY IN THE CITY OF NEW YORK, priority 2006, dated 2017).
Ends that are not written are not given here.

Key:
[1] = Osteocalcin subcutaneous infusion in wt mice: glycemia; assay type: in vivo, mouse; conditions: wild type mice, 0.3, 1 and 3 ng/hour subcutaneously for 28 days, vs PBS
Description: FIG. 10. […] Indicated doses of recombinant osteocalcin or PBS were infused subcutaneously for 28 days in wt mice. Blood glucose was measured at indicated days.
An in vivo experiment was conducted in which the effect of undercarboxylated osteocalcin on glycemia was monitored. Wild type mice were infused with 3 different amounts of mouse recombinant undercarboxylated osteocalcin or placebo (PBS) subcutaneously for 28 days (0.3, 1 and 3 ng/hour).

[2] = Osteocalcin subcutaneous infusion in wt mice: insulin sensitivity after insulin injection; assay type: in vivo, mouse; conditions: wild type mice, 0.3 or 3 ng/hour subcutaneously for 18 days, then insulin injection, 0-120 minutes, vs PBS
Description: FIG. 12. […] Wt mice were infused subcutaneously with indicated doses of recombinant osteocalcin or PBS for 18 days before receiving a single injection of insulin. Blood glucose was measured thereafter at indicated times.
Metabolic studies. For glucose tolerance test (GTT), glucose (2 g/kg body weight (BW)) was injected intraperitoneally (IP) after an overnight fast and blood glucose was monitored using blood glucose strips and the Accu-Check glucometer (Roche) at indicated times. For glucose stimulated insulin secretion test (GSIS), glucose (3 g/kg BW) was injected IP after an overnight fast; sera were collected from tails and insulin measured as described (Mauvais-Jarvis et al., 2000). For insulin tolerance test (ITT), mice were fasted for six hours, injected IP with insulin (0.2 U/kg BW) and blood glucose levels were measured at indicated times as described (Mauvais-Jarvis et al., 2002). ITT data are presented as percentage of initial blood glucose concentration. […] Streptozotocin ([…] single injection, Sigma) was injected IP and blood glucose measured as described above every 2 days thereafter. […] Food intake was measured using metabolic cages as the daily change of food weight. Energy expenditure was measured using metabolic cages connected to a calorimeter (Columbus Instrument). Heat values (Kcal/Hr) were recorded over 2 days and reported to each mouse BW. […]

[3] = tested on: Adiponectin expression in WT adipocytes; experiment: Adiponectin expression in adipocytes treated with osteocalcin (real time PCR); assay type: cell-based, mouse; conditions: wild type adipocytes treated for 4 hours, real time PCR, vs vehicle
Description: (§1) FIG. 7A-O. Esp−/− Mice Are a Model of Increased Osteocalcin Bioactivity. (FIGS. 7A-G) Comparison between 6-week-old WT, Esp−/, Ocn+/−, and Esp−/−; Ocn+/− mice. (FIG. 7A) Blood glucose levels. (FIG. 7B) Serum insulin levels. (FIG. 7C) Serum adiponectin levels. (FIG. 7D) GTT. (FIG. 7E) ITT. (FIG. 7F) GSIS test. (FIG. 7G) Quantification of the number of Ki67-immunoreactive cells in pancreatic islets. […] (FIG. 7K) Expression of Adiponectin in WT adipocytes cultured in presence of vehicle or of 1 ng/ml of commercially available carboxylated osteocalcin (Immunotopics) or bacterially produced uncarboxylated osteocalcin. (FIG. 7L) Expression of Insulin and Cyclin D1 in WT islets cultured in presence of 0.3 ng/ml of bacterially produced uncarboxylated osteocalcin or vehicle. (FIG. 7M) Metabolic parameters and total serum osteocalcin levels in control and obese patients. (FIG. 7N-O) Quantification of carboxylated osteocalcin (HA-bound osteocalcin) in control and obese patients. In (FIGS. 7A)-(C) and (FIGS. G)-(L): *p<0.05 versus WT (Student's t test); in (FIG. D)-(F), °p<0.05 versus WT and *p % 0.001 versus WT (ANOVA followed by post hoc analysis).
FIG. 15. […] Wt adipocytes were treated for 4 hours with recombinant full-length osteocalcin (1-46) or a truncated form (1-36) or vehicle. Adiponectin expression was then quantified by real time PCR.
Primary adipocytes were isolated from epididymal fat pads by collagenase digestion. Briefly, minced adipose tissue was digested by 1 mg/ml collagenase P in KRP Buffer (20 mM HEPES, 120 mM NaCl, 6 mM KCl, 1.2 mM MgSO4, 1 mM CaCl2, 0.6 mM Na2HPO4, 0.4 mM NaH2PO4, 2.5 mM D-glucose, 2% BSA, pH 7.4) for 1 h at 37° C. The isolated cells were washed twice with KRP Buffer before being cultured in αMEM/1% FBS at 37° C. in 5% CO2.
Gene expression analyses. All gene expression analyses were performed using real time PCR. DNAse I-treated total RNA was converted to cDNA with the SuperScript III kit (Invitrogen). Real-time PCR were performed using the Taq SYBR Green Supermix with ROX (Biorad) on an MX3000 instrument (Stratagene); beta-actin amplification was used as an internal reference for each sample. All primers were from SuperArray.
A fragment of uncarboxylated osteocalcin is biologically active. Experiments were performed to test whether truncated osteocalcin was as effective as full-length uncarboxylated osteocalcin in stimulating adiponectin secretion from mouse adipocytes in vitro. Wild type adipocytes were treated for 4 hours with recombinant full-length osteocalcin (1-46) or a truncated form (1-36) (having a deletion of the first ten amino acids from the C-terminal end) or vehicle. Adiponectin expression was then quantified by real time PCR. […]

[4] = tested on: Insulin and Cyclin D1 expression in WT islets; experiment: Insulin and Cyclin D1 expression in islets cultured with uncarboxylated osteocalcin; assay type: cell-based, mouse; conditions: 0.3 ng/ml (FIG. 7L)
Description: as §1
Mouse islets and adipocytes isolation. Islets were isolated using a Histopaque gradient (1077, Sigma). […]

[5] = listed as recombinant osteocalcin

## uncarboxylated osteocalcin: Recombinant mouse osteocalcin bacterially produced as GST fusion, cleaved with thrombin; completely undercarboxylated at all three sites (YLGASVPSPDPLEPTREQCELNPACDELSDQYGLKTAYKRIYGITI; not fully specified; ends and bridges not checked; UniProt P86546 50-95, looked up)
[1]; [5]
  glycemia (blood glucose): decreases glycemia
[1]; listed as undercarboxylated osteocalcin
  glycemia (blood glucose): decreased glycemia
[2]
  insulin sensitivity: increased
[2]; [5]
  insulin sensitivity: increases insulin sensitivity
[3]
  increase of Adiponectin expression: ~1.5 fold
[4]
  expression of Cyclin D1, marker of beta-cell proliferation: induced
  insulin expression: induced insulin expression
